Results from the NIST ThermoML archive (doi:10.1016/j.jct.2019.02.022).

Assay: xn = mol fraction of the nth substance listed
Details: Liquid, Gas absorption technique

With `Cn1cc[n+](CCO)c1.F[P-](F)(F)(F)(F)F` [3-(2-hydroxyethyl)-1-methylimidazolium hexafluorophosphate] + S the binary diffusion coefficient (303.15 K, 111.3 kPa, x2 = 0) was 1.55e-10 m2/s, the binary diffusion coefficient (313.15 K, 113.7 kPa, x2 = 0) was 2.37e-10 m2/s and the binary diffusion coefficient (323.15 K, 108.4 kPa, x2 = 0) was 3.74e-10 m2/s.
Compound `Cn1cc[n+](CCO)c1.F[P-](F)(F)(F)(F)F` [3-(2-hydroxyethyl)-1-methylimidazolium hexafluorophosphate] + O=C=O has a binary diffusion coefficient (303.15 K, 105.6 kPa, x2 = 0) of 1.39e-10 m2/s, a binary diffusion coefficient (313.15 K, 109.3 kPa, x2 = 0) of 2.15e-10 m2/s and a binary diffusion coefficient (323.15 K, 110.6 kPa, x2 = 0) of 2.7e-10 m2/s.
In the case of `Cn1cc[n+](CCO)c1.O=S(=O)([N-]S(=O)(=O)C(F)(F)F)C(F)(F)F` + S, the binary diffusion coefficient (303.15 K, 111.7 kPa, x2 = 0) is reported as 2.07e-10 m2/s, the binary diffusion coefficient (313.15 K, 113.9 kPa, x2 = 0) is reported as 3.35e-10 m2/s and the binary diffusion coefficient (323.15 K, 114.5 kPa, x2 = 0) is reported as 5.51e-10 m2/s.
`Cn1cc[n+](CCO)c1.O=S(=O)([O-])C(F)(F)F` + S showed a binary diffusion coefficient (303.15 K, 107 kPa, x2 = 0) of 2.28e-10 m2/s, a binary diffusion coefficient (313.15 K, 109.6 kPa, x2 = 0) of 2.93e-10 m2/s and a binary diffusion coefficient (323.15 K, 113.9 kPa, x2 = 0) of 3.66e-10 m2/s.
Work on `S` [hydrogen sulfide] + CCn1cc[n+](C)c1.O=S(=O)([N-]S(=O)(=O)C(F)(F)F)C(F)(F)F yielded a binary diffusion coefficient (303.15 K, 109.8 kPa, x1 = 0) of 7.98e-10 m2/s, a binary diffusion coefficient (313.15 K, 108.6 kPa, x1 = 0) of 9.06e-10 m2/s and a binary diffusion coefficient (323.15 K, 109.4 kPa, x1 = 0) of 1.17e-09 m2/s.
In the case of `CCn1cc[n+](C)c1.O=S(=O)([N-]S(=O)(=O)C(F)(F)F)C(F)(F)F` + O=C=O, the binary diffusion coefficient (303.15 K, 111.3 kPa, x2 = 0) is reported as 6.15e-10 m2/s, the binary diffusion coefficient (313.15 K, 113.7 kPa, x2 = 0) is reported as 7.22e-10 m2/s and the binary diffusion coefficient (323.15 K, 108.4 kPa, x2 = 0) is reported as 9.52e-10 m2/s. For the same compound, the binary diffusion coefficient (333.15 K, 113.2 kPa, x2 = 0) was 1.19e-09 m2/s and the binary diffusion coefficient (343.15 K, 113.7 kPa, x2 = 0) was 1.56e-09 m2/s.
`Cn1cc[n+](CCO)c1.O=S(=O)([N-]S(=O)(=O)C(F)(F)F)C(F)(F)F` + O=C=O gave a binary diffusion coefficient (303.15 K, 106.2 kPa, x2 = 0) of 1.31e-10 m2/s, a binary diffusion coefficient (313.15 K, 109.9 kPa, x2 = 0) of 2.67e-10 m2/s and a binary diffusion coefficient (323.15 K, 111.2 kPa, x2 = 0) of 3.97e-10 m2/s.
